Laboratory results taken from article PMC2801521, “Correctness of Protein Identifications of Bacillus subtilis Proteome with the Indication on Potential False Positive Peptides Supported by Predictions of Their Retention Times” (Journal of Biomedicine and Biotechnology, 2009).

Test: Experimental gradient RP-LC retention time of peptides (LC-ESI-MS/MS)
Type: physicochemical
Method: The chromatographic analysis was performed on C-18 analytical column: XTerra MS C18 3.5 μm (2.1 × 100 mm) column (Waters, Milford, MA, USA).
The mobile phase consisted of two solvents (A and B) mixed on-line. Solvent A was 0.1% aqueous (water was MS-grade) solution of trifluoroacetic acid (TFA) (Sigma-Aldrich, Steinheim, Germany) and solvent B was acetonitrile (ACN) (MS-grade, Sigma-Aldrich, Steinheim, Germany) containing 0.1% TFA. The applied linear gradient time was 90 min, from 0% B to 60% B. The flow rate was 200 μL/min. The injection volume was 10 μL. The LC-MS apparatus was equipped with thermostated column oven and surveyor autosampler controlled at 20°C (Thermo Finnigan, San Jose, CA, USA), a quaternary gradient Surveyor MS pump (Thermo Finnigan, San Jose, CA, USA) with a diode array detection (DAD) system, and LTQ linear ion trap MS system with ESI ion source controlled by Xcalibur software 1.4 (Thermo Finnigan, San Jose, CA, USA).
The MS/MS analysis was performed on Finnigan LTQ instrument (Thermo Finnigan, San Jose, CA, USA). Mass spectra were generated in positive ion mode under constant instrumental conditions: source voltage 4.62 kV, capillary voltage 40.97 V, sheath gas flow rate 39.99 (arbitrary units), auxiliary gas flow 10 (arbitrary units), sweep gas flow 0.95 (arbitrary units), capillary temperature 219.96°C, and tube lens voltage 250.43 V. MS/MS spectra, obtained by CID (collision-induced dissociation) in the linear ion trap, were performed with an isolation width 3Da (m/z); the activation amplitude was 35% of ejection RF amplitude that corresponds to 1.58 V.
The experimental retention times of the peptides (tR exp) were determined at peak intensity maximum. The m/z values measured manually for the most intense peaks in acquired MS/MS spectra were automatically searched against the protein database (*fasta) using the Sequest Algorithm, incorporated into Bioworks 3.0 (Thermo Finningan, San Jose, CA, USA). The *fasta format for each protein was downloaded from Expasy (http://www.expasy.org/sprot/).

[1] = experimental gradient HPLC retention time (LC-ESI-MS/MS), Table 4 test peptides
[2] = Table 5, Bacillus subtilis proteome peptides, one peptide, Xcorr below 1.5, gradient RP-LC, XTerra MS C18, 0-60% ACN with 0.1% TFA in 90 min, 200 μL/min, 20°C, ESI-MS/MS
[3] = Table 2, test peptides from model proteins, gradient RP-LC, XTerra MS C18, 0-60% ACN with 0.1% TFA in 90 min, 200 μL/min, 20°C, ESI-MS/MS
[4] = Table 1, model peptides, gradient RP-LC, XTerra MS C18 3.5 μm 2.1 × 100 mm, 0-60% ACN with 0.1% TFA, linear 90 min, 200 μL/min, 20°C, ESI-MS/MS, at peak intensity maximum

Row | Substance | tR exp [1] [min] | tR exp [2] [min] | further results
1 | DIMSPSR | 14.30 |  | 
2 | KIDKSIFPGIQGGPLMH |  | 12.03 | 
3 | LEIASEFGVNLGADTTSR | 33.12 |  | 
4 | LAAGISTI |  | 92.62 | 
5 | NVACK [test peptide from tryptic digest of model protein 7] |  |  | tR exp [3]: 8.38 min
6 | GIIAAYG |  | 89.29 | 
7 | EAEELIPNVTTAAVK | 29.18 |  | 
8 | SGSIESIDVSLTDLR | 33.05 |  | 
9 | SGETEDSTIADIAVATNAGQIK | 30.05 |  | 
10 | EVMIEGVLSVLEGQAPK | 29.51 |  | 
11 | ELQEKFLIPAVEQKK | 29.27 |  | 
12 | YICENQDSISSK [model peptide from tryptic digest of model protein 6] |  |  | tR exp [4]: 18.06 min
13 | TCVADESAENCDK [model peptide from tryptic digest of model protein 6] |  |  | tR exp [4]: 15.32 min
14 | IDNLSYYIEQEYK | 30.89 |  | 
15 | ETCFAEEGKK [test peptide from tryptic digest of model protein 6] |  |  | tR exp [3]: 16.58 min
16 | IDFPTNITMD |  | 96.80 | 
17 | LNSLDSR | 14.29 |  | 
18 | EPIQSFFQID |  | 51.92 | 
19 | GQEQLIPPLIL |  | 81.34 | 
20 | GNQVSENLQQAAR | 20.52 |  | 
21 | LTELQVRHII |  | 48.06 | 
22 | GHNPGQPEPLSGSK | 17.05 |  | 
23 | NECFLQHK [model peptide from tryptic digest of model protein 6] |  |  | tR exp [4]: 19.67 min
24 | DGWKVCLGKVGSMDAHKVVAAIETASKKSG |  | 37.72 | 
25 | NLLFAAR | 14.27 |  | 
26 | VHTECCHGDLLECADDRADLAK [model peptide from tryptic digest of model protein 6] |  |  | tR exp [4]: 24.98 min
27 | YPNCAYK [model peptide from tryptic digest of model protein 7] |  |  | tR exp [4]: 16.78 min

Row | Substance | tR exp [1] [min] | tR exp [2] [min] | further results
28 | IGLLIFLP |  | 93.97 | 
29 | HSSDEEPFSALAFK | 33.16 |  | 
30 | AAFTECCQAADK [model peptide from tryptic digest of model protein 6] |  |  | tR exp [4]: 19.31 min
31 | VVVSVNTDQDQAQAQSQDGED | 19.37 |  | 
32 | TGALIVYTSADSVLQIAAHEEVVPLEE |  | 52.12 | 
33 | QDIPIEARMNEIVHSLK | 29.33 |  | 
34 | SHTGKAAVLNR | 24.54 |  | 
35 | EGTVIKELIGAGQLDEK | 29.49 |  | 
36 | PQTPVP |  | 80.37 | 
37 | DGITDVL |  | 93.5 | 
38 | QHMDSSTSAASSSNYCNQMMK [model peptide from tryptic digest of model protein 7] |  |  | tR exp [4]: 20.46 min
39 | VHTECCHGDLLECADDR [model peptide from tryptic digest of model protein 6] |  |  | tR exp [4]: 22.86 min
40 | IHTLEHLLAFTI |  | 81.04 | 
41 | ELSASMG |  | 18.33 | 
42 | LALDLESKK | 18.01 |  | 
43 | PIITVAKEAWPTL |  | 83.17 | 
44 | LIDKHKKYVYHRINK | 29.00 |  | 
45 | DRVFIAPVGGGPR | 29.82 |  | 
46 | INIMSAR | 14.23 |  | 
47 | NRAVGFISFVI |  | 58.59 | 
48 | AQLSEKKGADGYL |  | 26.46 | 
49 | HGGSLSAPAIH |  | 97.03 | 
50 | AAEMAVARQNEQKVKK | 29.44 |  | 
51 | CCAAADPHECYAK [model peptide from tryptic digest of model protein 6] |  |  | tR exp [4]: 16.98 min
52 | HIIVACEGNPYVPVHFDASV [model peptide from tryptic digest of model protein 7] |  |  | tR exp [4]: 32.15 min
53 | NIAEMVK | 14.25 |  | 
54 | IDIALESKK | 18.04 |  | 
